Target: GST-tagged truncated human mutant G2019S LRRK2 (Homo sapiens, UniProt Q5S007, G2019S)
Experiment: LRRK2 G2019S Km ATP LanthaScreen assay
Type: biochemical
Details: 134 μM ATP (Km ATP), LRRKtide substrate, mean IC50 values; read-out: LRRK2 pIC50 (converted)
Procedure, shortened: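 LanthaScreen TR-FRET read with fluorescein-LRRKtide and 134 μM ATP (Km) in Tris pH 8.5/10 mM MgCl2 buffer. The enzyme was preincubated 15 min with compound at room temperature, and the reaction ran 90 min at ambient temperature. Stopped with EDTA plus Tb anti-phospho-LRRKtide antibody; the 520/495 nm ratio gave a 4-parameter logistic IC50, mean of several runs.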

Q: How did the IC50 turn out when `CC(C)c1cc(Nc2ncc3ccc(N4C(=O)OC[C@@H]4C)cc3n2)ns1` [Ex-8.9, (4S)-4-methyl-3-(2-{[5-(propan-2-yl)-1,2-thiazol-3-yl]amino}quinazolin-7-yl)-1,3-oxazolidin-2-one] was run?
A: 8.03 nM

Q: `Cc1c(Nc2ncc3cc(Cl)c(N4CCN(C5(C)COC(C)(C)C5)CC4)cc3n2)cnn1C1CC1` (single isomer, unassigned) [Ex-12.2] was tested. Which IC50 did it give?
A: 0.721 nM

Q: With `Clc1cc2cnc(Nc3cnn(C45CC(C4)C5)c3Cl)nc2cc1N1CCC2(CCOC2)CC1` [Ex-3.39, N-[1-(bicyclo[1.1.1]pentan-1-yl)-5-chloro-1H-pyrazol-4-yl]-6-chloro-7-(2-oxa-8-azaspiro[4.5]decan-8-yl) quinazolin-2-amine] as the compound, how does the IC50 read?
A: 3.23 nM

Q: `C[C@H]1COC(=O)N1c1ccc2cnc(Nc3cnn4c3CCCC4)nc2c1` [Ex-8.13, (4S)-4-methyl-3-{2-[(4,5,6,7-tetrahydropyrazolo[1,5-a]pyridin-3-yl)amino]quinazolin-7-yl}-1,3-oxazolidin-2-one] was tested. Which IC50 did it give?
A: 0.625 nM

Q: For `CC(C)(O)Cn1ncc(Nc2ncc3cc(Br)c(NCC4CC4)nc3n2)c1Cl` [Ex-15.1, 1-[4-({6-Bromo-7-[(cyclopropylmethyl)amino]pyrido[2,3-d]pyrimidin-2-yl}amino)-5-chloro-1H-pyrazol-1-yl]-2-methylpropan-2-ol], which IC50 is on record?
A: 36.7 nM

Q: With `Cc1c(Nc2ncc3cc(Cl)c(N4CCN(C5(C)COC5)CC4)cc3n2)cnn1CC(C)(C)O` [Ex-4.55, 1-[4-({6-chloro-7-[4-(3-methyloxetan-3-yl)piperazin-1-yl]quinazolin-2-yl}amino)-5-methyl-1H-pyrazol-1-yl]-2-methylpropan-2-ol] as the compound, how does the IC50 read?
A: 11.1 nM

Q: With `O=C1COCC12CCN(c1cc3nc(Nc4cnn(C5CC5)c4Cl)ncc3cc1Cl)CC2` [Ex-3.36, 8-{6-chloro-2-[(5-chloro-1-cyclopropyl-1H-pyrazol-4-yl)amino]quinazolin-7-yl}-2-oxa-8-azaspiro[4.5]decan-4-one] as the compound, how does the IC50 read?
A: 3.02 nM

Q: How did the IC50 turn out when `CC1CCC12CN(c1cc3nc(Nc4cnn(C5(C)CC5)c4Cl)ncc3cc1Cl)C2` (centres unmarked) [Ex-4.24, 6-chloro-N-[5-chloro-1-(1-methylcyclopropyl)-1H-pyrazol-4-yl]-7-(5-methyl-2-azaspiro[3.3]heptan-2-yl)quinazolin-2-amine] was run?
A: 218 nM

Q: For `Cc1c(Nc2ncc3cc(Cl)c(N4CCN(C5COCC5O)CC4)cc3n2)cnn1C1CC1(F)F` (single isomer, unassigned) [Ex-6.45, (3S,4S) or (3R,4R) 4-[4-(6-chloro-2-{[1-(2,2-(R) or (S)difluorocyclopropyl)-5-methyl-1H-pyrazol-4-yl]amino}quinazolin-7-yl)piperazin-1-yl]oxolan-3-ol], which IC50 is on record?
A: 0.843 nM

Q: How did the IC50 turn out when `CC(C)Nc1ccc2cnc(Nc3cnn(C4CCN(C5(C)COC5)CC4)c3Cl)nc2c1Cl` [Ex-3.53, 8-chloro-N~2~-{5-chloro-1-[1-(3-methyloxetan-3-yl)piperidin-4-yl]-1H-pyrazol-4-yl}-N~7~- (propan-2-yl)quinazoline-2,7-diamine] was run?
A: 6.88 nM

Q: How did the IC50 turn out when `CN1CCC2CCN(c3cc4nc(Nc5cnn(C6CC6)c5Cl)ncc4cc3Cl)C2C1` (centres unmarked) [Ex-1.42, 6-chloro-N-(5-chloro-1-cyclopropyl-1H-pyrazol-4-yl)-7-(6-methyloctahydro-1H-pyrrolo[2,3-c]pyridin-1-yl)quinazolin-2-amine] was run?
A: 25.6 nM

Q: For `C[C@]1(O)[C@@H]2CC[C@H]1CN(c1cc3nc(Nc4cnn(C5CC5(F)F)c4Cl)ncc3cc1Cl)C2` (single isomer, unassigned) [Ex-3.41, (R) or (S) (8-syn)-3-(6-chloro-2-{[5-chloro-1-(2,2-difluorocyclopropyl)-1H-pyrazol-4-yl]amino}quinazolin-7-yl)-8-methyl-3-azabicyclo[3.2.1]octan-8-ol], which IC50 is on record?
A: 23 nM

Q: For `Cc1cc(Nc2ncc3cc(Cl)c(N4CCN(C5(C)COC5)CC4)cc3n2)sn1` [Ex-4.62, 6-chloro-7-[4-(3-methyloxetan-3-yl)piperazin-1-yl]-N-(3-methyl-1,2-thiazol-5-yl)quinazolin-2-amine], which IC50 is on record?
A: 0.793 nM

Q: For `Cn1ncc(Nc2ncc3ccc(N4C(=O)C5CCC4C5)cc3n2)c1C(F)(F)F` (single isomer, unassigned) [Ex-4.5, 2-(2-{[1-methyl-5-(trifluoromethyl)-1H-pyrazol-4-yl]amino}quinazolin-7-yl)-2-azabicyclo[2.2.1]heptan-3-one], which IC50 is on record?
A: 7.26 nM

Q: Which IC50 does the source give for `OC[C@H]1CCN(c2cc3nc(Nc4cnn(CC(F)F)c4Cl)ncc3cc2Cl)C1` [Ex-1.20, [(3S)-1-(6-chloro-2-{[5-chloro-1-(2,2-difluoroethyl)-1H-pyrazol-4-yl]amino}quinazolin-7-yl)pyrrolidin-3-yl]methanol] here?
A: 8.23 nM

Q: How did the IC50 turn out when `OC1COCC1N1CCN(c2cc3nc(Nc4cnn(C(F)F)c4)ncc3cc2Cl)CC1` (single isomer, unassigned) [Ex-6.46, (3S,4S) or (3R,4R) 4-(4-(6-chloro-2-((1-(difluoromethyl)-1H-pyrazol-4-yl)amino)quinazolin-7-yl)piperazin-1-yl)tetrahydrofuran-3-ol] was run?
A: 18.4 nM

Q: For `CC1(n2ncc(Nc3ncc4cc(Cl)c(N5CCn6cnnc6C5)cc4n3)c2Cl)CC1` [Ex-4.45, 6-chloro-N-[5-chloro-1-(1-methylcyclopropyl)-1H-pyrazol-4-yl]-7-(5,6-dihydro[1,2,4]triazolo[4,3-a]pyrazin-7(8H)-yl)quinazolin-2-amine], which IC50 is on record?
A: 1.27 nM

Q: `CN1CC2CC1CN2c1cc2nc(Nc3cnn(C4(C)CC4)c3Cl)ncc2cc1Cl` (centres unmarked) [Ex-4.35, 6-chloro-N-[5-chloro-1-(1-methylcyclopropyl)-1H-pyrazol-4-yl]-7-(5-methyl-2,5-diazabicyclo[2.2.1]heptan-2-yl)quinazolin-2-amine] was tested. Which IC50 did it give?
A: 4.91 nM

Q: Which IC50 does the source give for `CC1(N2CCN(c3cc4nc(Nc5cnn(CC(F)F)c5)ncc4cc3Cl)CC2)COC1` [Ex-6.1, 6-chloro-N-(1-(2,2-difluoroethyl)-1H-pyrazol-4-yl)-7-(4-(3-methyloxetan-3-yl)piperazin-1-yl)quinazolin-2-amine] here?
A: 5.68 nM

Q: With `Cc1c(Nc2ncc3cc(Cl)c(N4CCN(C5COCC5O)CC4)cc3n2)cnn1C1CC1(F)F` (single isomer, unassigned) [Ex-6.39, (3S,4S) or (3R,4R) 4-[4-(6-chloro-2-{[1-(2,2-(R) or (S)difluorocyclopropyl)-5-methyl-1H-pyrazol-4-yl]amino}quinazolin-7-yl)piperazin-1-yl]oxolan-3-ol] as the compound, how does the IC50 read?
A: 0.65 nM

Q: `[2H]C([2H])([2H])n1nc(C(C)(C)n2nccn2)cc1Nc1ncc2cc(Cl)c(N3CCC(C)(O)CC3)cc2n1` [Ex-14.1, 1-(2-((3-(2-(2H-1,2,3-Triazol-2-yl)propan-2-yl)-1-(methyl-d3)-1H-pyrazol-5-yl)amino)-6-chloroquinazolin-7-yl)-4-methylpiperidin-4-ol] was tested. Which IC50 did it give?
A: 4.11 nM

Q: With `CC1(N2CCN(c3cc4nc(Nc5cnn(C6(C)CC6)c5Cl)ncc4cc3Cl)CC2)COC1` [Ex-4.22, 6-chloro-N-[5-chloro-1-(1-methylcyclopropyl)-1H-pyrazol-4-yl]-7-[4-(3-methyloxetan-3-yl)piperazin-1-yl]quinazolin-2-amine] as the compound, how does the IC50 read?
A: 0.625 nM

Q: `CCn1ncc(Nc2ncc3ccc(N4C(=O)C5CCC4C5)cc3n2)c1C` (centres unmarked) [Ex-7.19, 2-{2-[(1-ethyl-5-methyl-1H-pyrazol-4-yl)amino]quinazolin-7-yl}-2-azabicyclo[2.2.1]heptan-3-one] was tested. Which IC50 did it give?
A: 2.53 nM
